{"source": "patent US9248088B2", "about": "“Compositions and methods for skin conditioning” (TELOMERASE ACTIVATION SCIENCES, INC., priority 2003, dated 2016)", "key": {"[1]": {"test_system": "telomerase activity in HEKneoP cells (neonatal keratinocytes)", "assay": "TRAP assay of telomerase activity in neonatal keratinocytes", "format": "cell-based, human", "conditions": "for MEC (minimum effective concentration producing telomerase activity twice that of DMSO control): HEKneoP cells, 100% greater than DMSO control; for telomerase activity (result in words): neonatal keratinocytes / normal cells"}, "[2]": {"test_system": "aging adult keratinocytes", "assay": "scratch assay (cell reconfluence), aging adult keratinocytes", "format": "cell-based, human", "conditions": "for Approx. scratch width (arbitrary units) Day 1 test: 0.1 μg/ml (about 0.13 μM) 1", "protocol": "As used herein, “as measured in a scratch assay” refers to measurement of cell reconfluence in keratinocytes or fibroblasts according to the following protocol, and expressed as the value of SC shown in the formula below. Cells are plated in flasks ((5×10^5 cells per flask) and cultured for two days in a humidified chamber at 5% CO2, 37° C. A 2 ml plastic pipette is gently dragged thought the culture to “scratch” the cell surface. The ideal scratch is approximately 2-3 mm wide and 50 mm long (along the long axis of the tissue culture flask). The cells are retreated with medium containing either vehicle (control sample) or test compositions at multiple dilutions. A scratch area is identified, the flask marked, and the appearance of the cells documented photographically over 3-4 days continued culturing of the cells. Amount of cell reconfluence, or closure of the scratch, is determined by measuring width of the scratch over time for compound-treated samples relative to vehicle-treated or other control cells. […] Percentage of closure is calculated by the following formula: SC=100−[100×Wn/W0], where Wn is the width of the scratch on day n and W0 is the width of the scratch on day one (i.e. immediately after scratching). […] Briefly, a scratch, typically about 2-3 mm in width, is created through a mass of plated cells, and the time needed for the cells to become confluent is observed. […] (GRN163 is a telomerase inhibitor oligonucleotide that targets the template region of the telomerase RNA component. Specifically, GRN163 is a 13-mer N3′→P5′ thiophosphoramidate oligonucleotide, described in detail in PCT Pubn. No. WO 01/18015. GRN137227 is a 13-mer N3′→P5′ thiophosphoramidate control oligonucleotide having a mismatched sequence.)"}, "[3]": {"test_system": "young neonatal keratinocytes", "assay": "scratch assay (cell reconfluence), young neonatal keratinocytes", "format": "cell-based, human", "conditions": "FIG. 5, 2 at 0.01 μM; for SCtest (percentage of closure): SC=100-[100×Wn/W0]", "protocol": "(§1) As used herein, “as measured in a scratch assay” refers to measurement of cell reconfluence in keratinocytes or fibroblasts according to the following protocol, and expressed as the value of SC shown in the formula below. Cells are plated in flasks ((5×10^5 cells per flask) and cultured for two days in a humidified chamber at 5% CO2, 37° C. A 2 ml plastic pipette is gently dragged thought the culture to “scratch” the cell surface. The ideal scratch is approximately 2-3 mm wide and 50 mm long (along the long axis of the tissue culture flask). The cells are retreated with medium containing either vehicle (control sample) or test compositions at multiple dilutions. A scratch area is identified, the flask marked, and the appearance of the cells documented photographically over 3-4 days continued culturing of the cells. Amount of cell reconfluence, or closure of the scratch, is determined by measuring width of the scratch over time for compound-treated samples relative to vehicle-treated or other control cells. […] Percentage of closure is calculated by the following formula: SC=100−[100×Wn/W0], where Wn is the width of the scratch on day n and W0 is the width of the scratch on day one (i.e. immediately after scratching)."}, "[4]": {"test_system": "aging neonatal keratinocytes", "assay": "scratch assay (cell reconfluence), aging neonatal keratinocytes", "format": "cell-based, human", "conditions": "FIG. 7; compared with 50 ng/mL PDGF", "protocol": "as §1"}, "[5]": {"format": "in vitro ADME", "conditions": "human", "protocol": "J. Franz et al., Abst. J Invest Dermatol 94:525, 1990). […] The receptor solution concentration (representing the inner surface of the skin) was then collected at predetermined intervals over 48 hours, to determine extent and rate of appearance of labeled compound."}}, "note": "Like-named read-outs stand apart in the source and are kept apart here."}
{"compound": "CC(C)(O)[C@@H]1CC[C@](C)([C@H]2[C@@H](O)C[C@@]3(C)[C@@H]4C[C@H](O[C@@H]5O[C@H](CO)[C@@H](O)[C@H](O)[C@H]5O)[C@H]5C(C)(C)[C@@H](O[C@@H]6OC[C@@H](O)[C@H](O)[C@H]6O)CC[C@@]56C[C@@]46CC[C@]23C)O1", "note": "[Compound 1, astragaloside IV]", "values": [{"measurement": "MEC (minimum effective concentration producing telomerase activity twice that of DMSO control)", "setting": "[1]", "value": 0.01, "unit": "µM"}, {"measurement": "telomerase activity", "setting": "[1]; at 1.0 μM, maximum of the concentration series", "value": "about 360 % of control"}, {"measurement": "telomerase activity (result in words)", "setting": "[1]", "value": "increase in telomerase activity"}, {"measurement": "SCtest (percentage of closure)", "setting": "[2]; FIG. 4, 0.1 μg/ml 1, SC=100-[100×Wn/W0]", "value": 100, "unit": "%"}, {"measurement": "Approx. scratch width (arbitrary units) Day 1 test", "setting": "[2]; FIG. 4, first 'Day 1 test' column", "value": 17, "unit": "arbitrary units"}, {"measurement": "Approx. scratch width (arbitrary units) Day 1 test", "setting": "[2]; FIG. 4, second 'Day 1 test' column", "value": 0, "unit": "arbitrary units"}, {"measurement": "confluence of treated cells", "setting": "[2]; FIG. 4, 0.1 μg/ml (about 0.13 μM), versus control cells at day 4", "value": "confluent at day 4"}, {"measurement": "cell proliferation", "setting": "[2]; FIG. 6, 1 alone", "value": "promotion of cell proliferation"}, {"measurement": "SCtest (percentage of closure)", "setting": "[3]", "value": 100, "unit": "%"}, {"measurement": "Approx. scratch width (arbitrary units) Day 1 test", "setting": "[3]; first 'Day 1 test' column", "value": 18, "unit": "arbitrary units"}, {"measurement": "Approx. scratch width (arbitrary units) Day 1 test", "setting": "[3]; second 'Day 1 test' column", "value": 0, "unit": "arbitrary units"}, {"measurement": "promotion of cell reconfluence", "setting": "[4]", "value": "comparable to that of PDGF"}]}
{"compound": "CC(C)(O)[C@@H]1CC[C@](C)([C@H]2[C@@H](O)C[C@@]3(C)[C@@H]4C[C@H](O)[C@H]5C(C)(C)[C@@H](O)CC[C@@]56C[C@@]46CC[C@]23C)O1", "note": "[Compound 2, cycloastragenol]", "values": [{"measurement": "MEC (minimum effective concentration producing telomerase activity twice that of DMSO control)", "setting": "[1]", "value": 0.01, "unit": "µM"}, {"measurement": "telomerase activity", "setting": "[1]; at 0.1 μM, maximum of the concentration series", "value": "about 300 % of control"}, {"measurement": "telomerase activity (result in words)", "setting": "[1]", "value": "increase of telomerase activity"}, {"measurement": "SCtest (percentage of closure)", "setting": "[3]", "value": 90.5, "unit": "%"}, {"measurement": "Approx. scratch width (arbitrary units) Day 1 test", "setting": "[3]; first 'Day 1 test' column", "value": 21, "unit": "arbitrary units"}, {"measurement": "Approx. scratch width (arbitrary units) Day 1 test", "setting": "[3]; second 'Day 1 test' column", "value": 2, "unit": "arbitrary units"}, {"measurement": "total delivery over 48 hours", "setting": "[5]; 0.01 wt %", "value": "~66", "unit": "ng"}, {"measurement": "total delivery over 48 hours", "setting": "[5]; 0.25 wt %", "value": "~600", "unit": "ng"}]}
{"compound": "CC(C)(O)[C@@H]1CC[C@](C)([C@H]2[C@@H](O)C[C@@]3(C)[C@@H]4C[C@H](O)[C@H]5C(C)(C)[C@@H](O)CC[C@]5(C)C4=CC[C@]23C)O1", "note": "[Compound 3, astragenol]", "values": [{"measurement": "MEC (minimum effective concentration producing telomerase activity twice that of DMSO control)", "setting": "[1]", "value": 0.03, "unit": "µM"}]}
{"compound": "CC(C)(O)[C@@H]1CC[C@](C)([C@H]2[C@@H](O)C[C@@]3(C)[C@@H]4CC=C5C(=CC[C@H](O)C5(C)C)[C@]4(C)CC[C@]23C)O1", "note": "[Compound 5, 20R,24S-epoxy-3β,16β,25-trihydroxy-9β-methyl-19-norlanost-1,5-diene]", "values": [{"measurement": "MEC (minimum effective concentration producing telomerase activity twice that of DMSO control)", "setting": "[1]", "value": 0.10, "unit": "µM"}]}
{"compound": "CC(C)(O)[C@@H]1CC[C@](C)([C@H]2[C@@H](O)C[C@@]3(C)[C@@H]4C[C@H](OC5O[C@H](CO)[C@@H](O)[C@H](O)[C@H]5O)[C@H]5C(C)(C)[C@@H](O)CC[C@@]56C[C@@]46CC[C@]23C)O1", "note": "(stereo partly drawn) [Compound 6, cycloastragenol 6-β-D-glucopyranoside]", "values": [{"measurement": "MEC (minimum effective concentration producing telomerase activity twice that of DMSO control)", "setting": "[1]", "value": 3.2, "unit": "µM"}]}
{"compound": "CC(C)(O)[C@@H]1CC[C@](C)([C@H]2[C@@H](O)C[C@@]3(C)[C@@H]4C[C@H](O)[C@H]5C(C)(C)[C@@H](OC6OC[C@@H](O)[C@H](O)[C@H]6O)CC[C@@]56C[C@@]46CC[C@]23C)O1", "note": "(stereo partly drawn) [Compound 7, cycloastragenol 3-β-D-xylopyranoside]", "values": [{"measurement": "MEC (minimum effective concentration producing telomerase activity twice that of DMSO control)", "setting": "[1]", "value": 3.2, "unit": "µM"}]}
{"compound": "CC(C)=CCC[C@](C)(O)[C@H]1CC[C@]2(C)[C@@H]1[C@H](O)C[C@@H]1[C@@]3(C)CC[C@H](O)C(C)(C)[C@@H]3[C@@H](O[C@@H]3O[C@H](CO)[C@@H](O)[C@H](O)[C@H]3O)C[C@]12C", "note": "[Compound 8, ginsenoside RH1]", "values": [{"measurement": "MEC (minimum effective concentration producing telomerase activity twice that of DMSO control)", "setting": "[1]", "value": 10, "unit": "µM"}]}
{"compound": "EGF: EGF (epidermal growth factor), used at 10 nM as comparison in the TRAP assay [reference compound]", "values": [{"measurement": "telomerase activity", "setting": "[1]; cells treated with 10 nM EGF", "value": "about 200%"}]}
{"compound": "astragaloside IV 16-one [Compound 4]", "values": [{"measurement": "MEC (minimum effective concentration producing telomerase activity twice that of DMSO control)", "setting": "[1]", "value": 0.03, "unit": "µM"}]}
